Tests used:
[1] = Inhibition of recombinant wild type HIV reverse transcriptase; parameters: species or system Human immunodeficiency virus
[2] = Inhibition of wild type HIV reverse transcriptase in cell free assay; settings: Human immunodeficiency virus
[3] = target: Human immunodeficiency virus type 1 reverse transcriptase (Human immunodeficiency virus 1, UniProt Q72547, M184I); assay: Inhibition of HIV reverse transcriptase M184I mutant in cell free assay
[4] = Inhibition of HIV reverse transcriptase M184V mutant in cell free assay; settings: Human immunodeficiency virus

Structure (SMILES) | IC50 [1] [µM] | IC50 [2] [µM] | IC50 [3] [µM] | IC50 [4] [µM]
Nc1nc(=O)n([C@H]2C[C@@H](COP(=O)(O)OP(=O)(O)OP(=O)(O)O)C2)cc1F | 4.7 | 6.9 | 6.1 | 
Nc1ccn([C@@H]2CS[C@H](COP(=O)(O)OP(=O)(O)OP(=O)(O)O)O2)c(=O)n1 [LAMIVUDINE TRIPHOSPHATE] | 3 | 6.5 | > 10 | > 10

From ChEMBL document CHEMBL1148002, “Synthesis and evaluation of 2'-substituted cyclobutyl nucleosides and nucleotides as potential anti-HIV agents” (Bioorg Med Chem Lett, 2007)
